Experiments:
FOXO1 = FOXO1 phosphorylation and nuclear localization (Western blot, cell fractionation); type: cell-based, human; details: LNCaP and PC-3-GFP cells
Description: The transcription factor FOXO1 is a downstream substrate of Akt in which phosphorylation by Akt prevents its pro-apoptotic actions (Woods et al., 2002). Since previous studies of α-TEA's mechanism of action in inducing apoptosis in cancer cells show a role for Fas signaling (Shun et al., 2004) and since FOXO1 has been proposed to be a transcriptional regulator of FasL (Ciechomska et al., 2003), it was of interest to investigate the effects of α-TEA on FOXO1 phosphorylation status and cellular location. […] FOXO1 is normally localized in the nucleus (Woods et al., 2002) and phosphorylation of FOXO1 by Akt at Ser 256 promotes the relocation of FOXO1 from the nucleus to the cytosol, thereby inhibiting its transcriptional activity (Greer et al., 2005). As expected, control LNCaP and PC-3-GFP cells had high levels of FOXO1 in the cytosol reflecting the constitutively activated state of Akt in these cells (FIG. 7B).
Plasmids encoding wild type FOXO1 (Flag-tagged FOXO1) and constitutively active FOXO1 (Flag-tagged FOXO1AAA) were generous gifts from Dr. Kun-Liang Guan (Tang et al., 1999). FOXO1 and phospho-FOXO1 antibodies were purchased from Cell Signaling Technology (Beverly, Mass.).
Preparation of cytoplasmic and nuclear extracts for the foregoing experiments was carried-out using methods that are well known in the art. […]

Arg = Arg mRNA (RT-PCR) and protein (Western blot) levels; type: cell-based, human; details: 40 μM α-TEA
Procedure: Arg (ABL2) expression data obtained from gene array analysis was further confirmed by RT-PCR and Western blot analyses. […] Unlike MDA-MB-435 cells, the MCF-7 cell line is an estrogen-receptor positive/estrogen responsive human breast cancer line (Klotz et al., 1995). However, both cell lines were induced to undergo apoptosis by α-TEA as assessed by PARP cleavage (FIG. 1B).
(§1) Whole-cell protein extracts were prepared as described previously (Yu et al., 1999), and 50 μg of protein was loaded per lane, separated using SDS-PAGE on a 10-15% gel under reducing conditions, and electroblotted onto a nitrocellulose membrane ([…] Optitran BA-S-supported nitrocellulose; Schleicher and Schuell, Keene, N.H.). Equal loading was verified using GAPDH antibody. Primary rabbit antibodies with specificity for PARP and primary goat antibody with specificity for Arg were purchased from Santa Cruz Biotechnology (Santa Cruz, Calif.). Horseradish peroxidase conjugated goat anti-rabbit or horseradish goat anti-mouse secondary antibody was purchased from Jackson Immunoresearch Laboratory (West Grove, Pa.). Horseradish peroxidase-conjugated donkey anti-goat serum was purchased from Santa Cruz Biotechnology. Immune complexes were visualized using enhanced chemiluminescence detection (Pierce Chemical Co., Rockford, Ill.). Fold differences in level of chemiluminescence were determined by densitometric analyses.
Total RNA was isolated from cells using RNeasy Protect Mini kit (Qiagen, Valencia, Calif.) according to manufacturer's instruction. Reverse transcription was performed as described above except using 15 μg of total RNA as template. […]
The double stranded small interfering RNA oligonucleotides specific for Arg and negative control siRNA (with no known homology to mammalian genes) were purchased from Ambion (siRNA ID #1478, Austin, Tex.). […] The cells were collected, lysed and the lysates were analyzed by immunoblotting (Western blot).

PARP = PARP cleavage (p84) by Western blot, densitometry; type: cell-based, human; details: LNCaP, 40 μM α-TEA 15 h
Procedure: as §1
Primary mouse antibody specific for p73 was purchased from IMGENEX (San Diego, Calif.). Primary mouse antibody specific for caspase 8 was purchased from Cell Signaling Technology (Beverly, Mass.). Horseradish peroxidase conjugated goat anti-rabbit or goat anti-mouse secondary antibodies were purchased from Jackson Immunoresearch Laboratory (West Grove, Pa.). Horseradish peroxidase-conjugated donkey […] serum was purchased from Santa Cruz Biotechnology. Immune complexes were visualized using enhanced chemiluminescence detection (Pierce Chemical Co., Rockford, Ill.). Fold differences in level of chemiluminescence were determined by densitometric analyses.

TSP-1 = TSP-1 mRNA and protein levels in 66c1-4-GFP mouse mammary tumor cells; type: cell-based; details: 66c1-4-GFP cells, 40 μM α-TEA
[1] = system: human MDA-MB-435 breast cancer cells; details: preclinical xenograft model transplanted with human MDA-MB-435 breast cancer cells (Zhang et al., 2004); cited from earlier work

Cc1c(C)c2c(c(C)c1OCC(=O)O)CC[C@@](C)(CCC[C@H](C)CCC[C@H](C)CCCC(C)C)O2 [α-TEA]
FOXO1 nuclear localization (FOXO1; 40 μM α-TEA for 24 h): increase in FOXO1 levels in the nucleus
phospho-FOXO1 levels (FOXO1; 40 μM α-TEA, 3-24 h, total protein unchanged): reduced in a time-dependent manner
up-regulation of Arg mRNA and protein levels (Arg; MCF-7 cells): not in MCF-7 cells
peak Arg mRNA levels, fold of the vehicle (VEH) control (Arg; MDA-MB-435 cells, 24 h, RT-PCR densitometry): 1.5 fold
peak Arg protein levels, fold of the VEH control (Arg; MDA-MB-435 cells, 24 h, Western densitometry): 2.9 fold
PARP cleavage in comparison to empty vector control, cells overexpressing Flag-tagged wild type FOXO1 (PARP): 160%
PARP cleavage in comparison to empty vector control, cells overexpressing constitutively active Flag-FOXO1 AAA (PARP): 230%
peak TSP-1 mRNA levels, fold of VEH control (TSP-1; 6 h): 2.4 fold
TSP-1 protein levels, fold of VEH control (TSP-1; 24 h): 7.8 fold
blood vessel density [1]: significantly reduce blood vessel density

— patent publication US20100292316A1, “IMPROVED THERAPEUTIC METHODS AND COMPOSITIONS COMPRISING CHROMAN RING COMPOUNDS” (Research Development Foundation, priority 2007, published 2010)
